Data reported in US12029751B2, “Therapeutic agent for nervous system disease” (OSAKA UNIVERSITY, priority 2017, dated 2024).

How the values were obtained:
[1] = system: photocoagulation-induced cerebral infarction model C57BL/6J mice; experiment: Rotarod test in photocoagulation-induced cerebral infarction model; type: in vivo, mouse
Experimental: Eight to 10-week-old male C57BL/6J mice (about 24 g) were used. A photocoagulation-induced cerebral infarction model for laser light irradiation after rose bengal administration was constructed. In this model, the skull of each mouse was drilled to open a hole having a center at 2 mm from the anterior fontanel in the outward direction. At 5 minutes after a photosensitive dye rose bengal was administered, the right motor cortex as a center was irradiated with laser light to create cerebral infarction in the right lateral motor cortex. An osmotic pump (ALZET osmotic pumps, for 2-week operation) was embedded immediately after the creation of the cerebral infarction. The mice were divided into a methylcobalamin treatment group (N=3) and an untreated group (N=4), and rotarod tests (accelerating velocity method) were carried out at 2, 4, 7, 9, 11, and 14 days after the surgery creating cerebral infarction. The time until a mouse fell from a rotarod was measured, and a ratio to a maximum of 300 seconds as baseline was calculated.

[2] = system: rat spinal cord injury model; experiment: Immunofluorescent staining of macrophages (M1, M2, M1/M2 ratio) in rat spinal cord injury model; type: in vivo; set-up: Number of macrophages: unit: /mm2
Experimental: Six-week-old female Wistar rats were used. The rats were purchased from Charles River Laboratories Japan, Inc. (Yokohama, Japan). Anesthesia was performed as follows. A 1:10 dilution of a mixture of three anesthetic agents in physiological saline was administered by intraperitoneal injection. One dose consisted of 0.2 mg/kg of midazolam, 0.015 mg/kg of medetomidine, and 0.25 mg/kg of butorphanol. The rat was placed in a prone position on an operating table, and a dorsal midline incision was made. The T10 vertebral arch was removed to expose the posterior face of the spinal cord, and the left spinal cord was hemisected using a sharp-pointed surgical scalpel (spitz mess). The skin was sutured using a 4-0 nylon thread and the surgery was completed. A comparison was made among three groups: a methylcobalamin treatment group, an untreated group, and a sham group. Immediately after the surgical operation, an osmotic minipump filled with methylcobalamin (1 mg/kg/day) or physiological saline was placed for the methylcobalamin treatment group and the untreated group, respectively, and left in the left dorsal subcutaneous space. The sham group underwent only resection of the Th10 vertebral arch.
The rat spinal cord injury model of Example 9-1 was used. At 7, 14, and 28 days after the surgery, the rats were anesthetized with an anesthetic agent, and perfusion fixation was performed with 4% PFA. Then, the spinal cord including the injury site was collected and fixed with 20% sucrose for 24 hours, and the fixed spinal cord was freeze-embedded. The embedded tissue was sliced into a 5-μm-thick slice in a nerve short-axis direction and placed on a glass slide. The slice was dried for 1 hour and fixed with 100% methanol for 30 minutes. The fixed slices were blocked, and cells were allowed to react with primary antibodies at 4° C. overnight. The cells were further allowed to react with a secondary antibody at room temperature for 1 hour so that the nuclei were labeled with DAPI.
Using transverse spinal cord sections on the affected side at 2 and 1 mm on the head side and at 1 and 2 mm on the tail side from the injury site, the number of macrophages, the number of M1 (pro-inflammatory type) macrophages, the proportion of M1 macrophages, the number of M2 (anti-inflammatory type) macrophages, and the proportion of M2 macrophage per unit area, as well as the M1/M2 ratio were measured and calculated.
The primary antibodies used were an anti-CD68 antibody, an anti-iNOS antibody, and an anti-Arg1 antibody. The secondary antibodies used were an Alexa 488-labeled goat anti-rabbit IgG antibody and an Alexa 568-labeled goat anti-mouse IgG antibody.

[3] = 7, 14 and 28 days after the surgery, 1 mg/kg/day
[4] = Table 16 (FIG. 16; day not given), 1 mm on the head side
[5] = Table 16 (FIG. 16; day not given), 1 mm on the tail side
[6] = Table 16 (FIG. 16; day not given), 2 mm on the head side
[7] = Table 16 (FIG. 16; day not given), 2 mm on the tail side
[8] = Table 17 (FIG. 17; day not given), 1 mm on the head side
[9] = Table 17 (FIG. 17; day not given), 1 mm on the tail side
[10] = Table 17 (FIG. 17; day not given), 2 mm on the head side
[11] = Table 17 (FIG. 17; day not given), 2 mm on the tail side
[12] = Table 18 (FIG. 18; day not given), 1 mm on the head side
[13] = Table 18 (FIG. 18; day not given), 1 mm on the tail side
[14] = Table 18 (FIG. 18; day not given), 2 mm on the head side
[15] = Table 18 (FIG. 18; day not given), 2 mm on the tail side

Compound: C/C1=C2/[N-][C@H]([C@H](CC(N)=O)[C@@]2(C)CCC(=O)NC[C@@H](C)OP(=O)([O-])O[C@H]2[C@@H](O)[C@@H](n3cnc4cc(C)c(C)cc43)O[C@@H]2CO)[C@]2(C)N=C(/C(C)=C3N=C(/C=C4N=C1[C@@H](CCC(N)=O)C\4(C)C)[C@@H](CCC(N)=O)[C@]\3(C)CC(N)=O)[C@@H](CCC(N)=O)[C@]2(C)CC(N)=O.[CH3-].[Co+3] [MeCbl, methylcobalamin]
- rotarod test: time until fall, ratio to a maximum of 300 seconds as baseline ([1]; 0 day after PIT operation (baseline)): 0.998
- rotarod test: time until fall, ratio to a maximum of 300 seconds as baseline ([1]; 2 days after PIT operation, osmotic pump): 0.470
- rotarod test: time until fall, ratio to a maximum of 300 seconds as baseline ([1]; 2 days after PIT operation, osmotic pump, listed as methylcobalamin): significantly improved
- rotarod test: time until fall, ratio to a maximum of 300 seconds as baseline ([1]; 4 days after PIT operation, osmotic pump): 0.573
- rotarod test: time until fall, ratio to a maximum of 300 seconds as baseline ([1]; 4 days after PIT operation, osmotic pump, listed as methylcobalamin): significantly improved
- rotarod test: time until fall, ratio to a maximum of 300 seconds as baseline ([1]; 7 days after PIT operation, osmotic pump): 0.370
- rotarod test: time until fall, ratio to a maximum of 300 seconds as baseline ([1]; 9 days after PIT operation, osmotic pump): 0.437
- rotarod test: time until fall, ratio to a maximum of 300 seconds as baseline ([1]; 9 days after PIT operation, osmotic pump, listed as methylcobalamin): significantly improved
- rotarod test: time until fall, ratio to a maximum of 300 seconds as baseline ([1]; 11 days after PIT operation, osmotic pump): 0.521
- rotarod test: time until fall, ratio to a maximum of 300 seconds as baseline ([1]; 14 days after PIT operation, osmotic pump): 0.510
- M1 macrophages as compared with the untreated group [2, 3]: trends for decreased M1 macrophages
- M2 macrophages as compared with the untreated group [2, 3]: increased M2 macrophages
- number of accumulated macrophages per unit area as compared with the untreated group [2, 3]: trends for a smaller number
- M1/M2 ([2]; 7 days after a surgery, 1 mm on the head side): 0.5722
- M1/M2 ([2]; 7 days after a surgery, 1 mm on the tail side): 0.602
- M1/M2 ([2]; 7 days after a surgery, 2 mm on the head side): 0.8156
- M1/M2 ([2]; 7 days after a surgery, 2 mm on the tail side): 0.9337
- M1/M2 ([2]; 14 days after a surgery, 1 mm on the head side): 0.993
- M1/M2 ([2]; 14 days after a surgery, 1 mm on the tail side): 0.9409
- M1/M2 ([2]; 14 days after a surgery, 2 mm on the head side): 0.9106
- M1/M2 ([2]; 14 days after a surgery, 2 mm on the tail side): 0.8605
- M1/M2 ([2]; 28 days after a surgery, 1 mm on the head side): 2.457
- M1/M2 ([2]; 28 days after a surgery, 1 mm on the tail side): 4.3
- M1/M2 ([2]; 28 days after a surgery, 2 mm on the head side): 3.355
- M1/M2 ([2]; 28 days after a surgery, 2 mm on the tail side): 3.545
- M1 macropage ratio [2, 4]: 0.131
- Number of M1 macrophages/mm2 [2, 4]: 37.00 /mm2
- Number of M2 macrophages/mm2 [2, 4]: 63.85 /mm2
- Number of macrophages [2, 4]: 268.62
- M1 macropage ratio [2, 5]: 0.129
- Number of M1 macrophages/mm2 [2, 5]: 43.07 /mm2
- Number of M2 macrophages/mm2 [2, 5]: 76.13 /mm2
- Number of macrophages [2, 5]: 348.57
- M1 macropage ratio [2, 6]: 0.143
- Number of M1 macrophages/mm2 [2, 6]: 20.43 /mm2
- Number of M2 macrophages/mm2 [2, 6]: 25.87 /mm2
- Number of macrophages [2, 6]: 143.68
- M1 macropage ratio [2, 7]: 0.170
- Number of M1 macrophages/mm2 [2, 7]: 27.02 /mm2
- Number of M2 macrophages/mm2 [2, 7]: 28.76 /mm2
- Number of macrophages [2, 7]: 155.09
- M1 macrophage ratio [2, 8]: 0.122
- M2 macrophage ratio [2, 8]: 0.130
- Number of M1 macropages/mm2 [2, 8]: 48.35 /mm2
- Number of M2 macrophages/mm2 [2, 8]: 47.90 /mm2
- Number of macrophages [2, 8]: 362.17
- M1 macrophage ratio [2, 9]: 0.102
- M2 macrophage ratio [2, 9]: 0.112
- Number of M1 macropages/mm2 [2, 9]: 43.74 /mm2
- Number of M2 macrophages/mm2 [2, 9]: 43.12 /mm2
- Number of macrophages [2, 9]: 395.70
- M1 macrophage ratio [2, 10]: 0.103
- M2 macrophage ratio [2, 10]: 0.146
- Number of M1 macropages/mm2 [2, 10]: 28.35 /mm2
- Number of M2 macrophages/mm2 [2, 10]: 36.37 /mm2
- Number of macrophages [2, 10]: 271.15
- M1 macrophage ratio [2, 11]: 0.094
- M2 macrophage ratio [2, 11]: 0.143
- Number of M1 macropages/mm2 [2, 11]: 25.54 /mm2
- Number of M2 macrophages/mm2 [2, 11]: 28.29 /mm2
- Number of macrophages [2, 11]: 254.39
- M1 macrophage ratio [2, 12]: 0.090
- M2 macropahge ratio [2, 12]: 0.039
- Number of M1 macrophages/mm2 [2, 12]: 29.78 /mm2
- Number of M2 macrophages/mm2 [2, 12]: 12.86 /mm 2
- Number of macrophages [2, 12]: 320.22
- M1 macrophage ratio [2, 13]: 0.132
- M2 macropahge ratio [2, 13]: 0.032
- Number of M2 macrophages/mm2 [2, 13]: 10.33 /mm 2
- Number of macrophages [2, 13]: 342.11
- Number of M1 macrophages/mm2 ([2]; Table 18 (FIG. 18; day not given), 1 mm on the tail side (last position column)): 24.68 /mm2
- Number of M1 macrophages/mm2 ([2]; Table 18 (FIG. 18; day not given), 1 mm on the tail side (third position column)): 44.79 /mm2
- M1 macrophage ratio [2, 14]: 0.089
- M2 macropahge ratio [2, 14]: 0.032
- Number of M1 macrophages/mm2 [2, 14]: 20.16 /mm2
- Number of M2 macrophages/mm2 [2, 14]: 7.65 /mm 2
- Number of macrophages [2, 14]: 230.75
- M1 macrophage ratio [2, 15]: 0.095
- M2 macropahge ratio [2, 15]: 0.032
- Number of M2 macrophages/mm2 [2, 15]: 7.42 /mm 2
- Number of macrophages [2, 15]: 246.52
